Assay results: the Kinase Knowledgebase extract (Sharma et al. 2016)

Target: CDK2 (human) (UniProt P24941)
Experiment: Enzyme Assay
Conditions: concentration not given here

| inhibition | Compound |
| --- | --- |
| 81% | Nc1nc(NC2CCN(C(=O)C3CCOC3)CC2)sc1C(=O)c1c(F)cccc1F (stereo unspecified) |
| 16% | C=CCCCCC(=O)N1CCC(Nc2nc(N)c(C(=O)c3c(F)cccc3F)s2)CC1 |
| 77% | COc1cccc2cc(C(=O)N3CCC(Nc4nc(N)c(C(=O)c5c(F)cccc5F)s4)CC3)oc12 |
| 69% | CC(=O)Nc1cccc(C(=O)N2CCC(Nc3nc(N)c(C(=O)c4c(F)cccc4F)s3)CC2)c1 |
| 49% | C[C@H](CC(=O)N1CCC(Nc2nc(N)c(C(=O)c3c(F)cccc3F)s2)CC1)c1ccccc1 |
| 37% | COc1ccc(C2(C(=O)N3CCC(Nc4nc(N)c(C(=O)c5c(F)cccc5F)s4)CC3)CC2)cc1 |
| 55% | Nc1nc(NC2CCN(C(=O)c3cccc4ccccc34)CC2)sc1C(=O)c1c(F)cccc1F |
| 22% | COC(=O)[C@H]1CC=CC[C@H]1C(=O)N1CCC(Nc2nc(N)c(C(=O)c3c(F)cccc3F)s2)CC1 |
| 52% | Cc1ncccc1C(=O)N1CCC(Nc2nc(N)c(C(=O)c3c(F)cccc3F)s2)CC1 |
| 54% | CO[C@@H](C(=O)N1CCC(Nc2nc(N)c(C(=O)c3c(F)cccc3F)s2)CC1)c1ccccc1 |
| 57% | Nc1nc(NC2CCN(C(=O)Cc3cccc(F)c3F)CC2)sc1C(=O)c1c(F)cccc1F |
| 58% | COc1cc(C(=O)N2CCC(Nc3nc(N)c(C(=O)c4c(F)cccc4F)s3)CC2)cc(OC)c1C |
| 17% | CC(CO)(CO)C(=O)N1CCC(Nc2nc(N)c(C(=O)c3c(F)cccc3F)s2)CC1 |
| 67% | N#C/C(=C\c1ccccc1)C(=O)N1CCC(Nc2nc(N)c(C(=O)c3c(F)cccc3F)s2)CC1 |
| 61% | Nc1nc(NC2CCN(C(=O)[C@@H](O)Cc3ccccc3)CC2)sc1C(=O)c1c(F)cccc1F |
| 38% | Cn1cccc1C(=O)N1CCC(Nc2nc(N)c(C(=O)c3c(F)cccc3F)s2)CC1 |
| 50% | Nc1cc(C(=O)N2CCC(Nc3nc(N)c(C(=O)c4c(F)cccc4F)s3)CC2)ccc1Cl |
| -2% | Nc1nc(NC2CCN(C(=O)C3(c4ccccc4)CC3)CC2)sc1C(=O)c1c(F)cccc1F |
| 65% | Nc1nc(NC2CCN(C(=O)CCCc3cccs3)CC2)sc1C(=O)c1c(F)cccc1F |
| 39% | C=CCCCC(=O)N1CCC(Nc2nc(N)c(C(=O)c3c(F)cccc3F)s2)CC1 |
| 62% | CCCCCC#CC(=O)N1CCC(Nc2nc(N)c(C(=O)c3c(F)cccc3F)s2)CC1 |
| 38% | Cc1ccc(CCCC(=O)N2CCC(Nc3nc(N)c(C(=O)c4c(F)cccc4F)s3)CC2)cc1 |
| 61% | Nc1nc(NC2CCN(C(=O)/C=C/c3ccc(F)c(F)c3)CC2)sc1C(=O)c1c(F)cccc1F |
| -31% | Nc1nc(NC2CCN(C(=O)C(=O)c3c[nH]c4ccccc34)CC2)sc1C(=O)c1c(F)cccc1F |
| 54% | Cc1ccc2[nH]c(C(=O)N3CCC(Nc4nc(N)c(C(=O)c5c(F)cccc5F)s4)CC3)cc2c1 |
| 61% | Nc1nc(NC2CCN(C(=O)c3ccc(-n4cccc4)nc3)CC2)sc1C(=O)c1c(F)cccc1F |
